Measurements taken from patent publication US6369109B1, “Betulinic acid and derivatives thereof useful for the treatment of neuroectodermal tumor” (Deutsches Krebsforschungszentrum Stiftung des Offentlichen …, priority 1998, dated 2002).
Residues, ends and D or L forms follow the SMILES beside them. *: point of attachment. Cbz = O=C(OCc1ccccc1)*; CH2F = FC*

Key:
[1] = system: caspase-3, caspase-8 and PARP in cytosolic extracts of SHEP cells; experiment: Cell-free system of apoptosis: cleavage of caspases in cytosolic extracts by mitochondria; format: biochemical, human; details: for effect of inhibitor on caspase processing by supernatants from betulinic acid-treated mitochondria: 50 μM bongkrekic acid or 60 μM zVAD-fmk, FIG. 10A
Method: For determination of nuclear fragmentation, nuclei (10^3/μl) were incubated with mitochondria (1 μg/μl) in buffer D (10 mM HEPES, pH 7.4, 50 mM NaCl, 2 mM MgCl2, 5 mM EGTA, 1 mM DDT, 2 mM ATP, 10 mM phosphocreatine, 50 μg/ml creatine kinase, 10 μM cytochalasin B) for 2 h at 37° C. Nuclei were stained with propidium iodide ([…]) and analyzed by flow cytometry. For determination of caspase activation, cytosolic extracts (2 μg/μl) were incubated with mitochondria (1 μg/μl), cytochrome c (0.1-100 μM) or AIF-containing mitochondrial supernatant (0.5 μg/μl) in buffer D for 2 h at 37° C. Partially purified AIF (cytochrome c-free) was prepared as previously described (0.5 mg/ml, Susin et al., 1997, J. Exp. Med. 186, 5-37; Susin et al., 1996, J. Exp. Med. 184, 1331-41). Proteins were separated by 15% SDS-PAGE and Western blot analysis was performed as described above. To confirm equal loading of mitochondrial protein, all Western blots were also developed with an antibody directed against a 60 kDa mitochondrial antigen (data not shown).
SHEP cells transfected with bcl-2 or Bcl-XL or a neomycin resistance vector only were treated with 10 μg/ml betulinic acid for 16 h. Mitochondria were isolated and incubated with cytosolic extracts for 6 h in the presence or absence of 60 μM zVAD-fmk (left panel, cells). Alternatively, mitochondria isolated from untreated cells were incubated with 10 μg/ml betulinic acid or 5 mM atractyloside together with cytosolic extracts for 6 h in the presence or absence of 60 μMZ-VAD-fmk (right panel, mitos, Atra). Cytosolic extracts incubated with mitochondria isolated from untreated cells or with untreated mitochondria were used as control. 40 μg protein per lane isolated front cell lysates were separated by 15% SDS-PAGE. Immunodetection of caspases-3, -8 and PARP protein was performed by mouse anti-caspase-3 mAb, mouse anti-caspase-8 mAb, rabbit anti-PARP polyclonal antibody and ECL.
SHEP cells treated with 10 μg/ml betulinic acid for indicated times. Mitochondria were isolated and incubated with cytosolic extracts for 6 h. Western blot analysis was performed as described above.
Mitochondria isolated from SHEP cells transfected with bcl-2 or Bcl-XL or a neomycrn resistance vector only were treated with 10 μg/ml betulinic acid or 5 mM atractyloside for 0.5 h in the presence or absence of 50 μM bongkrekic acid or 60 μM zVAD-fmk. Mitochondrial supernatants obtained by high speed centrifugation were incubated with cytosolic extracts for 6 h at 37° C. Cytosolic extracts incubated with supernatants of untreated mitochondria were used as control. Western blot analysis was performed as described for FIG. 9A.
For determination of nuclear fragmentation, nuclei (10^3/μl) were incubated with mitochondria (1 μg/μl) in buffer D (10 mM HEPES, pH 7.4, 50 mM NaCl, 2 mM MgCl2, 5 mM EGTA, 1 mM DDT, 2 mM ATP, 10 mM phosphocreatine, 50 μg/ml creatine kinase, 10 μM cytochalasin B) for 2 h at 37° C. Nuclei were stained with propidium iodide ([…]) and analyzed by flow cytometry (Susin et al., 1997 Exp. Cell Res. 236:397-403). For determination of caspase activation, cytosolic extracts (2 μg/μl) were incubated with mitochondria (1 μg/μl), cytochrome c (10 μM) or AIF-containing mitochondrial supernatant (0.5 μg/μl) in buffer D for 2 h at 37° C. Proteins were separated by 15% SDS-PAGE and Western blot analysis was performed as described before.
SHEP cells transfected with Bcl-2 or Bcl-XL or a neomycin resistance vector only (Neo) were treated (Lanes+) with 0.5 μg/ml Doxo or 10 μg/ml Bet A for 16 h. Mitochondria were isolated and incubated with cytosolic extracts for 6 h. in the presence or absence of 60 μm Z-VAD.fmk. Western blot analysis was performed as described in FIG. 14A.

[2] = system: SH-EP neuroblastoma cells; experiment: Mitochondrial potential (DiOC6(3)), ROS (HE) and lipid peroxidation (NAO) by flow cytometry; format: cell-based, human; details: FIG. 12B
Method: The cationic lipophilic fluorochrome DiOC6(3)(460 ng/ml, Molecular Probes, Eugene, Oreg.) was used to measure the Δ¥m. HE(126 ng/ml. Molecular probes) was used to determine ROS generation, and NAO (94 ng/ml, Molecular Probes) was used to determine lipid peroxidation. Kroemer et al, 1997, Immunol. Today. 18:44-51. Cells were incubated for 12 min at 37° C. in the presence of the fluorochromes, washed in PBS/1% FCS, and immediately analyzed by flow cytometry (FACScan, Becton Dickinson). DiOC6(3) and NAO fluorescence were recorded in fluorescence 1; He fluorescence was assessed in fluorescence 3. The percentage of cells with low mitochondrial potential or enhanced ROS production was calculated in comparison to untreated control cells.
SH-EP neuroblastoma cells were treated with 10 μg/ml betulinic acid for the indicated times. Cells were stained with the fluorochrome DiOC6(3) to determine ΔΨm and with HE to determine ROS generation and analyzed by flow cytometry. Fold increase in cells with low ΔΨm [DiOC6(3)^low] or with enhanced ROS production (HE+) is shown.
SH-EP neuroblastoma cells treated with 10 μg/ml […] for 24 h (heavy line) or control cells (thin line) were strained with NAO to assess oxidized cardiolipin and analyzed by flow cytomety.
For determination of mitochondrial membrane potential, cells (5×10^5/ml) were incubated with 3,3′-dihexyloxacarbocyanide iodide (DiOC6(3), 40 nM, Molecular Probes, Inc., Eugene, Oreg.) for 15 min at 37° C. and analyzed on a flow cytometer (FACScan) (Zamzarni et al., 1996 J. Exp. Med. 183:1533-44). For cell sorting, cells were stained with DiOC6(3) and sorted into DiOC6(3)^high and DiOC6(3)^low cells on a cytofluorometer (FACS Vantage, Becton Dickinson). As a control, cells were treated with the uncoupling agent carbonyl cyanide m-chlorophenylhydrazone (mCICCP, 200 μM, Sigma).
SHEP cells transfected with Bcl-2 or BCl-XL or a neomycin resistance vector only (Neo) were treated with 0.5 μg/ml Doxorubicin or 10 μg/ml Betulinic acid for 48 h (A) or 24 h (B and C). Cells transfected with a neomycin resistance vector only (Neo) were treated in the presence or absence of 50 μm BA or 60 μm zVAD-fmk. Nuclear apoptosis was determined by FACS analysis or propidium iodide-stained DNA content in intact cells (A) or in a CFS incubating isolated nuclei with mitochondria from cells treated with Doxo or betulinic acid (C). ΔΨm was determined by staining cells with the potential-sensitive fluorochrome DiOC6(3) (B).

Row | SMILES | effect of inhibitor on caspase processing by supernatants from betulinic acid-treated mitochondria [1] | effect of inhibitor on cleavage of caspases by mitochondria from drug-treated cells ([1]; 60 μM zVAD-fmk, FIG. 9A, 15A) | effect of inhibitor on betulinic acid-induced ΔΨm dissipation ([2]; 60 μM zVAD-fmk) | effect of inhibitor on doxorubicin-induced loss of ΔΨm ([2]; 60 μM zVAD-fmk) | effect of inhibitor on drug-triggered ΔΨm loss ([2]; 50 μM bongkrekic acid, doxorubicin or betulinic acid) | caspase and PARP processing in cytosolic extracts by mitochondria from drug-treated cells ([1]; 10 μg/ml betulinic acid or 0.5 μg/ml doxorubicin 16 h, extracts 6 h, FIG. 9A, 15A) | loss of ΔΨm in intact SHEP cells ([2]; 0.5 μg/ml doxorubicin or 10 μg/ml betulinic acid, 24 h)
1 | COC(=O)C[C@H](NC(=O)[C@H](C)NC(=O)[C@@H](NC(=O)OCc1ccccc1)C(C)C)C(=O)CF [zVAD-fmk, benzyloxycarbonyl-Val-Ala-Asp-Fluoromethylketone] (Cbz-Val-Ala-Asp(OMe)-CH2F) | inhibited | blocked | had no effect | both inhibited | – | – | –
2 | CO[C@H](C/C=C\C=C\CC/C=C/C[C@H](C)/C=C/C(=C\C(=O)O)CC(=O)O)/C(C)=C\C=C(/C)C(=O)O [bongkrekic acid] | inhibited | – | – | – | inhibited drug-triggered nuclear fragmentation and ΔΨm loss | – | –
3 | COc1cccc2c1C(=O)c1c(O)c3c(c(O)c1C2=O)C[C@@](O)(C(=O)CO)C[C@@H]3O[C@H]1C[C@H](N)[C@H](O)[C@H](C)O1 [doxorubicin] | – | – | – | – | – | induced cleavage of caspases-3, -8 and PARP | induced loss of ΔΨm and nuclear fragmentation
